Assay results taken from publication PMC6271783 (Molecules, 2014).
Entries after “also recorded” stand apart in the source; their conditions may differ.

Experiments:
[1] = test system: AChBPs from different species; conditions: cited from earlier work
[2] = target: T1, rat α3β2 nAChRs (Rattus norvegicus, UniProt P04757+P12390); assay: biochemical
T1 construct: expressed in transfected cells; host or cells: Xenopus laevis oocytes injected with cRNA

[3] = test system: α3β2 nAChRs; conditions: cited from earlier work
[4] = target: T1, rat α3β2 nAChRs; assay type: biochemical
[5] = assay type: physicochemical; conditions: pH 7

T1 sequence (P04757 26-499 limits assumed): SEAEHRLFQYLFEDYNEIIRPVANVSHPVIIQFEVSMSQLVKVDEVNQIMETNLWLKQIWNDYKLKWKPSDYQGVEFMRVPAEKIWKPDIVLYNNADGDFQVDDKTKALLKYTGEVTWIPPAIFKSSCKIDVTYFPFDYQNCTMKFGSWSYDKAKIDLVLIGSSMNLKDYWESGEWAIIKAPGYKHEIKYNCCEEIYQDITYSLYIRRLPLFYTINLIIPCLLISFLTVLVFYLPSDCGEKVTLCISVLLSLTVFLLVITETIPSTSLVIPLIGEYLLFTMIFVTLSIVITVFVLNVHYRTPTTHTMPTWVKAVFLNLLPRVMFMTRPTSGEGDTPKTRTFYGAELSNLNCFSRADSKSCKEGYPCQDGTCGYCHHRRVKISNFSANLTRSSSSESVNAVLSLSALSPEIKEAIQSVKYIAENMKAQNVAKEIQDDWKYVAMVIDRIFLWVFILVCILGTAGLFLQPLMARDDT
T1 sequence (P12390 25-500 limits assumed): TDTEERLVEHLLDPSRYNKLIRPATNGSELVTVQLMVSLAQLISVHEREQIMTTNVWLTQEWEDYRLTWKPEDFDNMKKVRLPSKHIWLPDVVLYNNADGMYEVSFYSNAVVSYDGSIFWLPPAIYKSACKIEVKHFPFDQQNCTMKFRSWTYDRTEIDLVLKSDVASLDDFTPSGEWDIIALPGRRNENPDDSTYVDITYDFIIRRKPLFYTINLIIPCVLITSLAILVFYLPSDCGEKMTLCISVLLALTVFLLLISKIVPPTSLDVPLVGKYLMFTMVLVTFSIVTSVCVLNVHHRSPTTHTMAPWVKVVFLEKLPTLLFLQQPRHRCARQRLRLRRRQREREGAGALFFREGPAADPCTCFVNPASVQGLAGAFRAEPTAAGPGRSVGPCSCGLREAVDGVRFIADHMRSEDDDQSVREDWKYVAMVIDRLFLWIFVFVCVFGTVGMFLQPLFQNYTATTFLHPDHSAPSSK

## CC[C@H](C)[C@@H]1NC(=O)[C@@H]2CSSC[C@H](NC(=O)CN)C(=O)N[C@@H](CSSC[C@@H](C(N)=O)NC(=O)[C@H](CC(C)C)NC(=O)[C@H](CC(=O)O)NC(=O)[C@@H]3CCCN3C(=O)[C@H](CC(N)=O)NC(=O)[C@H](CC(N)=O)NC(=O)[C@H](C)NC1=O)C(=O)N[C@@H](CO)C(=O)N[C@@H](CCCNC(=N)N)C(=O)N1CCC[C@H]1C(=O)N1CCC[C@H]1C(=O)N2 [globular TxIA, α-conotoxin TxIA]
[1]
  affinity to AChBPs: high affinity
[2]
  IC50: 5.4 nM
  activity on α3β2 nAChRs: most potent isoform; also recorded: strongly inhibited; also recorded: most active form
  fold more potent than ribbon isomer: ~ 80 -fold
  inhibition of ACh-evoked response: almost complete inhibition
  reversibility of inhibition: reversibly inhibited
[3]
  selectivity: selectively targeted the α3β2 nAChRs
[4]
  relative potency among venom components: most potent component; also recorded: highest potency
[5]
  CD minimum: around 208 nm
  CD minimum, second of double minimum: ~222 nm
  secondary structure by CD: contained some α-helical structure

## CC[C@H](C)[C@@H]1NC(=O)[C@@H]2CSSC[C@H](NC(=O)[C@@H](NC(=O)CN)CSSC[C@@H](C(N)=O)NC(=O)[C@H](CC(C)C)NC(=O)[C@H](CC(=O)O)NC(=O)[C@@H]3CCCN3C(=O)[C@H](CC(N)=O)NC(=O)[C@H](CC(N)=O)NC(=O)[C@H](C)NC1=O)C(=O)N[C@@H](CO)C(=O)N[C@@H](CCCNC(=N)N)C(=O)N1CCC[C@H]1C(=O)N1CCC[C@H]1C(=O)N2 [ribbon TxIA]
[2]
  IC50: 430 nM
  activity on α3β2 nAChRs: weaker potency
  fold less potent than globular isomer: ~ 80 times
[2]; read-out: inhibition of ACh evoked current amplitude
  inhibition at 0.5 µM: ~65%
[5]
  secondary structure by CD: between them
